Patent US20190298775A1, “LIVER ORGANOID COMPOSITIONS AND METHODS OF MAKING AND USING SAME” (Children's Hospital Medical Center, priority 2016, published 2019)
Read-outs that look alike come from different tables or passages of the source.

What was measured:
[1] = system: bile transport activity in liver organoids
Experimental: To determine if FD can be used for live assessment of transport capacity without exchanging the medium and adjusting exposure, chronological hepatobiliary transport activity was further investigated with time-lapse imaging. […] The opposite directionality of this transport flow was determined by the micro-injection of FD into organoids.
To quantify the inhibitory potential for FD excretion, Applicant developed a simple but robust quantification method by determining the fluorescent intensity ratio between outside and inside the organoid by image J (FIG. 4, panel B).
Fluorescein diacetate was used for evaluating bile transport activity in organoids. Around Day 25, the organoids were rinsed with PBS, and, fluorescein diacetate was treated to organoids in medium. In addition, to investigate the direction of transport, fluorescein diacetate was injected to organoids using by Nanoject III (Drummond Scientific). After treatment or injection of fluorescein diacetate, images were captured on fluorescent microscopy BZ-X710 (Keyence). […] Changes in brightness or contrast during processing were applied equally across the entire image.

human liver organoids = conditions: for organoid viability / cell viability: human; for organoid viability: 130 μM; for cell viability: 50 μM
lipotoxic organoid model = experiment: Viability in organoids on vulnerable (lipotoxic, oleic acid) condition; assay type: cell-based, human
Experimental: Next, 50 μM of Troglitazone was treated with or without 50 μM NAC for 24h. […] Images were captured sequentially using fluorescent microscopy BZ-9000.

[2] = system: human iPSC-derived liver organoids; experiment: Albumin secretion of organoids (ELISA); assay type: cell-based
Experimental: On Day 7-8, definitive endoderm organoids with plated cells were gently pipetted to delaminate from dishes. Isolated spheroids were centrifuged at 800 rpm for 3 minutes and, after removing supernatant, embedded in 100% matrigel drop on the dishes. The plates were placed at 37° C. in an atmosphere of 5% CO2/95% air for 5-15 min. After the Matrigel was solidified, Advanced DMEM/F12 was added with B27, N2 and Retinoic acid (RA; Sigma, St. Louis, Mo.) 2 μM for 1-5 days. The media was replaced every other day. After RA treatment, organoids embedded in Matrigel drop were cultured in Hepatocyte culture medium (HCM Lonza, Walkersville, Md.) with 10 ng/mL hepatocyte growth factor (HGF; PeproTech, Rocky Hill, N.J.), 0.1 μM Dexamethasone (Dex; Sigma) and 20 ng/mL Oncostatin M (OSM; R&D Systems). Cultures for cell differentiation were maintained at 37° C. in an atmosphere of 5% CO2/95% air and the medium was replaced every 3 days. Around Day 20-30, organoids embedded in Matrigel drop were isolated by scratching and gentle pipetting for any analyses.
For measuring albumin, fibrinogen and complement factors secreted level of organoids, 200 μL of culture supernatant of organoids on Ultra-Low attachment 96 well plates (Corning) were collected. The culture supernatants were collected and stored at −80° C. until use. The supernatant was assayed with Human Albumin ELISA Quantitation Set (Bethyl Laboratories, Inc., TX, USA) and fibrinogen (Thermo Fisher Scientific) according to the manufacturer's instructions. For analyzing complement factors, supernatants were measured with Luminex System (Luminex Corporation, Austin, Tex.) according to the manufacturer's instructions. To calculate albumin production per the number of cells, the linear regression equation of cell numbers by diameter of an organoid was used. For measuring total bile acid secreted level intra-luminal organoids, fluid inside organoids was absorbed using microinjection Nanoject II (Drummond Scientific, Broomall, Pa., USA). Fluid absorbed was dilute in PBS and assayed with Total Bile Acid ELISA Kit (Antibodies-online, Inc., GA, USA). To calculate the volume of total bile acid, the number of cells in organoid was calculated using the linear regression equation in the same manner for albumin production and the molecular weight of cholic acid was used for calculation and comparing with volume in previous report.

liver organoids = experiment: Lipid accumulation in organoids after oleic acid (BODIPY live staining); assay type: cell-based, human; conditions: 3 days after oleic acid treatment
Experimental: Images were captured sequentially using fluorescent microscopy BZ-9000. […] The following regents or kits were used: BODIPY® 493/503 for lipids (Thermo Fisher Scientific), and SiR Actin Kit for cytoskeleton (USA Scientific, FL, USA), CellROX® Green Reagent for ROS (Fisher Scientific), TMRM (Thermo Fisher Scientific) for mitochondria. […] ROS production, mitochondria size and number were analyzed by IMARIS 8.

In the case of `COc1ccccc1Oc1c(NS(=O)(=O)c2ccc(C(C)(C)C)cc2)nc(-c2ncccn2)nc1OCCO` [Bosentan], the “efflux of FD (bile transport inhibition)” value [1] is reported as “significantly decreased”.
Compound `CCN(CC)C(=O)/C(C#N)=C/c1cc(O)c(O)c([N+](=O)[O-])c1` [Entacapone] has an organoid viability (human liver organoids; 24 h) of 85% and an organoid viability (human liver organoids; 72 h) of 64%.
In the case of `CC(=O)N[C@@H](CS)C(=O)O` [NAC, N-acetylcysteine], the “cell viability with NAC (rescue from Troglitazone toxicity)” value (lipotoxic organoid model; lipotoxic condition, 50 μM Troglitazone with 50 μM NAC, 24h) is reported as “significantly improved”.
For `CCc1nn(CCCN2CCN(c3cccc(Cl)c3)CC2)c(=O)n1CCOc1ccccc1` [Nefazodone], the “cell viability at 72 hours relative to TOL, DICLO and BOS” value (human liver organoids) was “significantly lowered” and the “efflux of FD (bile transport inhibition)” value [1] was “significantly decreased”.
`CC1=C(/C=C/C(C)=C/C=C/C(C)=C/C(=O)O)C(C)(C)CCC1` [RA, retinoic acid] was tested, and the “albumin secretion level of organoids at D25” value (from here on “albumin secretion level”) ([2]; 1 day of RA treatment) was 1160 ng/mL, the “albumin secretion level” value ([2]; 2 days of RA treatment) was 1054 ng/mL and the “albumin secretion level” value ([2]; 3 days of RA treatment) was 3092 ng/mL. For the same compound, the “albumin secretion level” value ([2]; 4 days of RA treatment) was 4709 ng/mL and the “albumin secretion level” value ([2]; 5 days of RA treatment) was 3865 ng/mL.
For `CN(CCOc1ccc(CC2SC(=O)NC2=O)cc1)c1ccccn1` (stereo not shown) [Rosiglitazone], the “toxicity in steatotic organoids” value (lipotoxic organoid model) was “vulnerable”.
In the case of `Cc1c(C)c2c(c(C)c1O)CCC(C)(COc1ccc(CC3SC(=O)NC3=O)cc1)O2` (stereo not shown) [Troglitazone], the “cell viability at 72 hours relative to TOL, DICLO and BOS” value (human liver organoids) is reported as “significantly lowered”, the cell viability (human liver organoids; 24 h) is reported as 85% and the cell viability (human liver organoids; 72 h) is reported as 67%. The “efflux of FD (bile transport inhibition)” value [1] was “significantly decreased”, the “cell viability compared to control” value (lipotoxic organoid model; lipotoxic condition (800 μM oleic acid 3 days), 50 μM for 24h, p<0.05) was −40% and the “organoid morphology on lipotoxic condition” value (lipotoxic organoid model; lipotoxic condition, 24h) was “massive fragmentation of organoids”.
In the case of `CCCCCCCC/C=C\CCCCCCCC(=O)O` [oleic acid], the “lipid accumulation in organoids” value (liver organoids) is reported as “intense”.
